Laboratory results published in patent US20100247593A1, “NOVEL COMPOUNDS AND PHARMACEUTICAL PREPARATIONS” (priority 2007, published 2010).

How the values were obtained:
[1] = Stability in CDCl3 solution according to NMR spectra; assay type: physicochemical; settings: CDCl3, 25° C.
Procedure: NMR spectra were recorded with a Varian UNITY INOVA 600 MHz spectrometer equipped with a cryoprobe in CDCl3 solution at 25° C. Chemical shifts are reported in ppm relative to residual solvent signal (δ(^1H) 7.25 ppm, δ(^13C) […]). Two-dimensional spectra recorded included DQF-COSY, NOESY, TOCSY, sensitivity-enhanced ^13C-HSQC and ^13C-^1H HMBC. Pulsed-field gradients were used for all ^13C correlation spectra. The NOESY mixing time was 800 ms, the TOCSY one 70 ms. ^13C-HMBC spectra were recorded with coupling evolution delay for the generation of multiple-bond correlations set to 62.5 ms. All 2D spectra were run with 4096*1024 points data matrix, giving τ2max=250 ms for ^1H nucleus in acquisition dimension and τ1max=100 ms for ^1H or τ1max=50 ms for ^13C for indirect dimension. Prior to Fourier transform the data matrix was zero-filled twice and multiplication by shifted sine-bell window function applied. For ^1H-^13C HMBC the magnitude spectra were calculated. Graphs from the spectra recorded are shown in drawing section FIGS. 15-27.

[2] = test system: male mice; assay: Mice sexual behaviour test (number of mounts); assay type: in vivo

SMILES	stability in CDCl3 solution according to the NMR spectra [1]	increase of number of mounts counted during the 3 hour period ([2]; subcutaneous 0.4 mg/kg x3 days, D4)	sexual activity (number of mounts over a 3 hour period) ([2]; subcutaneous in sun-flower oil x3 days, lowest dose (0.004 mg/kg))	sexual activity (number of mounts over a 3 hour period) ([2]; subcutaneous in sun-flower oil x3 days, two highest doses (0.4 and 0.04 mg/kg), D-4, D-7, D-14)	activity (Umnt) = 1/EC50 ([2]; subcutaneous x3 days, 7th day as basis)	time course of the effect on number of mounts ([2]; subcutaneous x3 days, tested D-4, D-7, D-14)	sexual activity (number of mounts over a 3 hour period) ([2]; subcutaneous in sun flower-oil x3 days, highest dose (4 mg/kg), all days tested (D-4, D-7, D-14))	sexual activity (number of mounts over a 3 hour period) ([2]; subcutaneous x3 days, two lower doses (0.4 and 0.04 mg/kg))
COC(=O)CC1C2(C)CC34OC5(C)OC67C(CC(=O)OC6C3(OC(=O)C(C)C)C2OC(=O)C(C)C)C(C)(C(=O)c2ccoc2)CCC7(O5)C14C (stereo not drawn) [R306]	stable during several weeks	about 3.5 fold	tendency of increase	significant increases	about 15 U/mg	peaked at D7, while clear effects were seen also at D14	–	–
COC(=O)CC1C2(C)CC34OC5(C)OC67C(C(C(=O)C(C)C)C(=O)OC6C3(O)C2OC(C)=O)C(C)(C(OC(C)=O)c2ccoc2)CCC7(O5)C14C (stereo not drawn) [R310]	consisted of two isomers which slowly interchanged	–	–	–	–	–	Significant increases	significantly increased only on D-4
